# Laboratory results published in patent US20240052109A1, “POLYSILOXANE VINYLIC MONOMERS AND USES THEREOF” (Alcon Inc., priority 2022, published 2024).
# Assay: Solubility of PDMS vinylic monomer in 1-PrOH:Water mixtures
# Assay type: physicochemical
# Conditions: 50-60 mg sample, stirred at room temperature
# Protocol: The solubility of quaternium ammonium containing PDMS vinylic monomer prepared in Example 2 is evaluated in 1-PrOH:Water mixtures. Typically, 50-60 mg of the sample is combined with a selected solvent system and it is stirred/agitated at room temperature. After few minutes compatibility is evaluated. For comparison, the solubilities of three reference materials are also evaluated. The three reference material are: methacryloxypropyl- and n-butyl-terminated polydimiethylsiloxane (D6, Mn=700-800 g/mol) (Ref. 1); methacryloxypropyl- and n-butyl-terminated polydimiethylsiloxane (D9, Mn=900-1,000 g/mol) (Ref. 2); and methyl- and 2-[4-(chloromethyl)phenyl]ethyl-terminated polydimethylsiloxane (Ref. 3).
Compound,Solubility (compatibility) in 1-PrOH:Water (1-PrOH:Water 0:100),Solubility (compatibility) in 1-PrOH:Water (1-PrOH:Water 20:80),Solubility (compatibility) in 1-PrOH:Water (1-PrOH:Water 40:60),Solubility (compatibility) in 1-PrOH:Water (1-PrOH:Water 60:40),Solubility (compatibility) in 1-PrOH:Water (1-PrOH:Water 80:20),Solubility (compatibility) in 1-PrOH:Water (1-PrOH:Water 100:0)
C=CC(=O)NCCC[N+](C)(C)Cc1ccc(CC[Si](C)(C)O[Si](C)(C)O[Si](C)(C)O[Si](C)(C)O[Si](C)(C)C)cc1 [Example 2],Hazy,Hazy,Clear,Clear,Clear,Clear
methyl- and 2-[4-(chloromethyl)phenyl]ethyl-terminated polydimethylsiloxane [Ref. 3],Hazy,Hazy,Hazy,Hazy,Clear,Clear
methacryloxypropyl- and n-butyl-terminated polydimiethylsiloxane [Ref. 1],Hazy,Hazy,Hazy,Hazy,Clear,Clear
methacryloxypropyl- and n-butyl-terminated polydimiethylsiloxane [Ref. 2],Hazy,Hazy,Hazy,Hazy,Hazy,Clear
